Experimental findings from patent publication US8324245B2, “Quinoline derivative and quinazoline derivative inhibiting self-phosphorylation of hepatocytus proliferator receptor, and medicinal composition containing the same” (Kyowa Hakko Kirin Co., Ltd., priority 2001, dated 2012) are described below.

T1 sequence (P08581 25-1390): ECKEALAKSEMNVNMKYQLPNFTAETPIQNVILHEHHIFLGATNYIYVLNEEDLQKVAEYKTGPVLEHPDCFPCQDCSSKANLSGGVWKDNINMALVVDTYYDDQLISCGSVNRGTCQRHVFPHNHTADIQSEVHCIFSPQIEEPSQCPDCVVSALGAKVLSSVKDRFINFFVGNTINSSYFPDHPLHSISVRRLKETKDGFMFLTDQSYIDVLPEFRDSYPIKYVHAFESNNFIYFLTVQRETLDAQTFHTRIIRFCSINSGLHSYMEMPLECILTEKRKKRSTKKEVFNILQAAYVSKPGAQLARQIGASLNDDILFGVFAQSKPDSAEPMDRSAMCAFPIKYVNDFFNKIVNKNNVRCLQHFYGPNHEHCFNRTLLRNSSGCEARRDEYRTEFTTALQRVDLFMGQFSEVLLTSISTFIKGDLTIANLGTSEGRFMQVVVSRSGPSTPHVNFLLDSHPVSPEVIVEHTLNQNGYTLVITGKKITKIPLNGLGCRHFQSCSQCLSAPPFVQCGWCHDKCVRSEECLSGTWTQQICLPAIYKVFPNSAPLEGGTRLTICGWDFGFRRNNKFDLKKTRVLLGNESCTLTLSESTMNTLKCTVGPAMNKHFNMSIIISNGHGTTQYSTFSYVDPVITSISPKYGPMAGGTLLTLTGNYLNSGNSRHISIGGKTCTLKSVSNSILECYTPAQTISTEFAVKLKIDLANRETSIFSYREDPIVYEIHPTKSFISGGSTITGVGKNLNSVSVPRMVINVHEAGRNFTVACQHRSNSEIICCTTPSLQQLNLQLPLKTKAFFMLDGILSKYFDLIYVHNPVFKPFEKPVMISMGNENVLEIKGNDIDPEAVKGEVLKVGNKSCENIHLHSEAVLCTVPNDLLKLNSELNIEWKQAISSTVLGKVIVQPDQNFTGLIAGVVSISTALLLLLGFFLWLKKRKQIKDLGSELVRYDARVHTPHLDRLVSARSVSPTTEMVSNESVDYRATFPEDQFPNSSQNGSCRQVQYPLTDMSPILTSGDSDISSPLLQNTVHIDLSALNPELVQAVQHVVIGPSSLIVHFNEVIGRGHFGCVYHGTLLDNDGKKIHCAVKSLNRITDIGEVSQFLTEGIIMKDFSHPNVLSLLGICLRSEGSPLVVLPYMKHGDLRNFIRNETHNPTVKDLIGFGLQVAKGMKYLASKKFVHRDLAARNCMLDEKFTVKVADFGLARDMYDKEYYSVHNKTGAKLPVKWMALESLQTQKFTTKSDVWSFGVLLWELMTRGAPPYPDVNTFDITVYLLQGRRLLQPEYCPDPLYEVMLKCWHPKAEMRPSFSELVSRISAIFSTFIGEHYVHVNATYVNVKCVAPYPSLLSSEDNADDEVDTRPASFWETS

This assay concerns the target T1, met (HGF receptor) in human gastric cancer cells MKN45 (Homo sapiens, UniProt P08581).
T1 construct: endogenous in cells; host or cells: MKN45 human gastric cancer cells
The assay is described as follows: Inhibitory activity against met-autophosphorylation using ELISA method (2), MKN45 cells, HGF-independent. The assay is classed as cell-based. On the procedure:
Cells were cultured with RPMI medium containing 0.1% fetal calf serum in 96-well flat-bottom plate in an amount of 3×10^4 per well, and were incubated at 37° C. overnight. The medium was then replaced by a fresh RPMI medium containing 0.1% fetal calf serum. A solution of the test compound in dimethyl sulfoxide was added to each well, and the incuvation was continued at 37° C. for additional one hr. The medium was removed, the cells were washed with phosphate buffered saline (pH 7.4), and 50 μl of a lysis buffer (20 mM HEPES (pH 7.4), 150 mM NaCl, 0.2% Triton X-100, 10% glycerol, 5 mM sodium orthovanadylate, 5 mM disodium ethylenediaminetetraacetate, and 2 mM Na4P2O7) was then added thereto. The mixture was shaken at 4° C. for 2 hr to prepare a cell extract.
Separately, phosphate buffered saline (50 μl, pH 7.4) containing 5 μg/ml of anti-phospho-tyrosine antibody (PY20; purchased from Transduction Laboratories) was added to a microplate for ELISA (Maxisorp; purchased from NUNC), followed by gentle agitation at 4° C. overnight to coat the surface of the wells with the antibody. After washing of the plate, 300 μl of a blocking solution was added, followed by gentle agitation at room temperature for 2 hr to perform blocking. After washing, the whole quantity of the cell extract was transferred to the wells, and the plate was then allowed to stand at 4° C. overnight. After washing, an anti-HGF receptor antibody (h-Met (C-12), purchased from Santa Cruz Biotechnology) was allowed to react at room temperature for one hr, and, after washing, a peroxidase-labeled anti-rabbit Ig antibody (purchased from Amersham) was allowed to react at room temperature for one hr. After washing, a chromophoric substrate for peroxidase (purchased from Sumitomo Bakelite Co., Ltd.) was added thereto to initiate a reaction. After a suitable level of color development, a reaction termination solution was added to stop the reaction, and the absorbance at 450 nm was measured with a microplate reader.
For the molecule `COc1cc2nccc(Oc3ccc(NC(=O)NC(=O)Cc4ccccc4)cc3)c2cc1OC` [Example 4, 1-[4-(6,7-dimethoxyquinolin-4-yloxy)phenyl]-3-phenyl-acetylurea], the concentration for half-maximal inhibition (IC50) (as a rule, the concentration at which inhibition is half-maximal) amounted to 75 nM. Molecule `COc1cc2nccc(Oc3ccc(NC(=O)NC(=O)Cc4ccccc4F)cc3Cl)c2cc1OC` [Example 28, 1-[3-chloro-4-(6,7-dimethoxyquinolin-4-yloxy)-phenyl]-3-[2-(2-fluorophenyl)acetyl]urea] registered an IC50 of 162 nM. In the case of `COc1cc2nccc(Oc3ccc(NC(=O)CC(=O)NC4CCCCCC4)cc3)c2cc1OC` [Example 101, N-cycloheptyl-N′-[4-(6,7-dimethoxyquinolin-4-yloxy)phenyl]malonamide], half-maximal inhibition (IC50) required 44.4 nM.

`COc1cc2c(Oc3ccc(NC(=O)NC(=O)Cc4ccccc4)cc3F)ccnc2cc1OCCCCl` [Example 14, 1-{4-[7-(3-chloro-propoxy)-6-methoxyquinolin-4-yloxy]-3-fluorophenyl}-3-phenylacetylurea] showed an IC50 of 291 nM.

Molecule `COc1cc2c(Oc3ccc(NC(=S)NC(=O)Cc4ccccc4)cc3F)ccnc2cc1OCCN1CCCN(C)CC1` [Example 273, 1-(3-Fluoro-4-{6-methoxy-7-[2-(4-methyl-[1,4]diazepan-1-yl)-ethoxy]-3-quinolin-4-yloxy}-phenyl)-3-phenylacetyl-thiourea] yielded an IC50 of 24 nM. Take `COc1cc2nccc(Oc3ccc(NC(=O)NC(=O)CSc4ccccc4)cc3)c2cc1OC` [Example 129, 1-[4-(6,7-dimethoxyquinolin-4-yloxy)phenyl]-3-(2-phenylsulfanylacetyl)urea]: the IC50 was found to be 1010 nM. Molecule `COc1cc2nccc(Oc3ccc(NC(=O)NC(=O)Cc4cccs4)cc3)c2cc1OC` [Example 29, 1-[4-(6,7-dimethoxyquinolin-4-yloxy)phenyl]-3-(2-thiophen-2-ylacetyl)urea] registered an IC50 of 37.1 nM. Molecule `COc1cc2nccc(Oc3ccc(NC(=O)CC(=O)NC(C)c4ccccc4)cc3)c2cc1OC` (stereo not drawn) [Example 214, N-[4-(6,7-dimethoxyquinolin-4-yloxy)phenyl]-N′-(1-phenylethyl)malonamide] had an IC50 of 2530 nM. Consider `COc1cc2nccc(Oc3ccc(NC(=S)NC(=O)Cc4ccc(F)cc4F)c(F)c3)c2cc1OC` [Example 93, 1-[2-(2,4-difluorophenyl)acetyl]-3-[4-(6,7-dimethoxyquinolin-4-yloxy)-2-fluorophenyl]thiourea], for which half-maximal inhibition (IC50) was put at 121 nM. For `COc1cc2c(Oc3ccc(NC(=S)NC(=O)Cc4cccc(Cl)c4)cc3F)ccnc2cc1OCC(O)CN1CCCCC1` (stereo not drawn) [Example 321, 1-[2-(3-Chloro-phenyl)-acetyl]-3-{3-fluoro-4-[7-(2-hydroxy-3-piperidin-1-yl-propoxy)-6-methoxy-quinolin-4-yloxy]-phenyl}-thiourea] the value was 125 nM; for `COc1cc2nccc(Oc3ccc(NC(=O)CC(=O)NC4CCCCC4)cc3)c2cc1OC` [Example 217, N-cyclohexyl-N′-[4-(6,7-dimethoxyquinolin-4-yloxy)phenyl]malonamide], 333 nM. `COc1cc2nccc(Oc3ccc(NC(=O)NC(=O)CN4CCSCC4)cc3Cl)c2cc1OC` [Example 131, 1-[3-chloro-4-(6,7-dimethoxyquinolin-4-yloxy)phenyl]-3-(2-thiomorpholin-4-ylacetyl)urea]: the IC50 is 2370 nM. The value for `COc1cc2nccc(Oc3ccc(NC(=S)NC(=O)Cc4cc(F)ccc4F)cc3F)c2cc1OC` [Example 195, 1-[2-(2,5-difluorophenyl)acetyl]-3-[4-(6,7-dimethoxyquinolin-4-yloxy)-3-fluorophenyl]thiourea] was 291 nM; that for `COc1cc2nccc(Oc3ccc(NC(=O)NC(=O)Nc4ccc5c(c4)OCCO5)cc3)c2cc1OC` [Example 238, N-(2,3-dihydro-1,4-benzodioxin-6-yl)-({[4-(6,7-dimethoxyquinolin-4-yloxy)anilino]carbonyl}amino)-methanamide] was 4020 nM. As to `COc1cc2nccc(Oc3ccc(NC(=S)NC(=O)Cc4ccccc4)c(F)c3)c2cc1OC` [Example 58, 1-[4-(6,7-dimethoxyquinolin-4-yloxy)-2-fluorophenyl]-3-phenylacetylthiourea], the IC50 is 27 nM. As for `COc1cc2nccc(Oc3ccc(NC(=S)NC(=O)CCCCl)cc3F)c2cc1OC` [Example 148, 1-(4-chloro-butyryl)-3-[4-(6,7-dimethoxy-quinolin-4-yloxy)-3-fluorophenyl]thiourea], the IC50 is 2480 nM. `COc1cc2nccc(Oc3ccc(NC(=O)NC(=O)Cc4cc(F)ccc4F)c(F)c3)c2cc1OC` [Example 132] returned an IC50 of 268 nM. `COc1cc2nccc(Oc3ccc(NC(=S)NC(=O)COc4ccccc4)cc3Cl)c2cc1OC` [Example 157, 1-[3-chloro-4-(6,7-dimethoxyquinolin-4-yloxy)phenyl]-3-(2-phenoxyacetyl)thiourea] returned an IC50 of 482 nM.

For the molecule `COc1cc2nccc(Oc3ccc(NC(=S)NC(=O)CCCC(C)C)cc3)c2cc1OC` [Example 177, 1-[4-(6,7-dimethoxyquinolin-4-yloxy)phenyl]-3-(5-methyl-hexanoyl)thiourea], it took 267 nM to reach half-maximal inhibition (IC50). For `CCCCC(=O)NC(=O)Nc1ccc(Oc2ccnc3cc(OC)c(OC)cc23)c(Cl)c1` [Example 109, 1-[3-chloro-4-(6,7-dimethoxyquinolin-4-yloxy)phenyl]-3-pentanoylurea] the value was 1480 nM. The value for `CCN(CC)CCCOc1cc2nccc(Oc3ccc(NC(=O)NC(=O)Cc4ccccc4)cc3F)c2cc1OC` [Example 291, 1-{4-[7-(3-Diethylamino-propoxy)-6-methoxy-quinolin-4-yloxy]-3-fluoro-phenyl}-3-phenylacetyl-urea] was 19.5 nM; that for `COc1cc2nccc(Oc3ccc(NC(=O)NC(=O)Nc4ccc(CC#N)cc4)cc3)c2cc1OC` [Example 241, N-[4-(cyanomethyl)phenyl]-({[4-(6,7-dimethoxyquinolin-4-yloxy)anilino]carbonyl}amino)-methanamide] was 3320 nM; that for `COc1cc2nccc(Oc3ccc(NC(=O)NC(=O)Cc4ccccc4F)cc3)c2cc1OC` [Example 25, 1-[4-(6,7-dimethoxyquinolin-4-yloxy)phenyl]-3-[2-(2-fluorophenyl)acetyl]urea] was 140 nM. As for `COc1cc2nccc(Oc3ccc(NC(=S)NC(=O)Cc4ccccc4Cl)c(F)c3)c2cc1OC` [Example 182, 1-[2-(2-chlorophenyl)acetyl]-3-[4-(6,7-dimethoxyquinolin-4-yloxy)-2-fluorophenyl]thiourea], the IC50 is 256 nM.

`COc1cc2nccc(Oc3ccc(NC(=O)NC(=O)Nc4ccccc4F)cc3)c2cc1OC` [Example 252, N-(2-fluorophenyl)-({[4-(6,7-dimethoxy-quinolin-4-yloxy)anilino]carbonyl}amino)methanamide] yielded an IC50 of 301 nM. For `COc1cc2nccc(Oc3ccc(NC(=O)CC(=O)NCCC(C)(C)C)cc3)c2cc1OC` [Example 221, N-[4-(6,7-dimethoxyquinolin-4-yloxy)phenyl]-N′-(3,3-dimethyl-butyl)malonamide] the value was 221 nM; for `COc1cc2nccc(Oc3ccc(NC(=O)NC(=O)CN4CCCc5cc(C)ccc54)c(F)c3)c2cc1OC` [Example 119, 1-[4-(6,7-dimethoxyquinolin-4-yloxy)-2-fluorophenyl]-3-[2-(6-methyl-3,4-dihydro-2H-quinolin-1-yl)acetyl]urea], 442 nM.
